# Source: US20170209445A1, “KINASE INHIBITORS” (Respivert Limited, priority 2014, published 2017)
# Marks after values point to notes of the source that are not given here.
# How the values were obtained:
# GSK3α = target: T1, GSK3α (Homo sapiens, UniProt P49840); test: GSK3α enzyme inhibition (Method 2), FRET Z-LYTE; format: biochemical
# T1 construct: purchased Invitrogen
# Method: (§1) The enzyme inhibitory activities of compounds disclosed herein are determined by FRET using synthetic peptides labelled with both donor and acceptor fluorophores (Z-LYTE, Invitrogen Ltd., Paisley, UK).
# The inhibitory activities of compounds of the invention against the GSK 3α enzyme isoform (Invitrogen), are evaluated by determining the level of activation/phosphorylation of the target peptide. The GSK3-α protein (500 ng/mL, 2.5 μL) is mixed with the test compound (2.5 μL at either 4 μg/mL, 0.4 μg/mL, 0.04 μg/mL, or 0.004 μg/mL) for 2 hr at RT. The FRET peptide (8 μM, 2.5 μL), which is a phosphorylation target for GSK3α, and ATP (40 μM, 2.5 μL) are then added to the enzyme/compound mixture and the resulting mixture incubated for 1 hr. Development reagent (protease, 5 μL) is added for 1 hr prior to detection in a fluorescence microplate reader (Varioskan® Flash, ThermoFisher Scientific).
# (§2) In all cases, the site-specific protease cleaves non-phosphorylated peptide only and eliminates the FRET signal. Phosphorylation levels of each reaction are calculated using the ratio of coumarin emission (donor) over fluorescein emission (acceptor), for which high ratios indicate high phosphorylation and low ratios indicate low phosphorylation levels.
# This method follows the same steps as Method 1 above, but utilises a shorter period of mixing of the test compound (105 minutes instead of 2 hours) with the GSK3-α protein.
# PBMCs [1] = test: LPS-induced IL-8 release in PBMC cells; format: cell-based; conditions: Homo sapiens, LPS-stimulated PBMCs, read-out: IC50 Values for Inhibition of Cytokine Release PBMCs IL-8
# Procedure, shortened: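 Healthy-donor PBMCs isolated by density gradient were pretreated with compound for 2 h, then stimulated with 1 ng/mL LPS (E. coli 0111:B4) for 24 h at 37° C., 5% CO2. IL-8 and TNFα in supernatants measured by sandwich ELISA.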
# [2] = Hydrolytic stability study; format: physicochemical; conditions: DMSO/water (3:1); for % Parent Remaining, cumulative average from multiple experiments / % Parent Remaining: 1 mg/mL; for % Parent Remaining: experiment in which Example 2 was tested
# Method: Chemical stability of compounds of the invention was assessed in a mixture of DMSO and water (3:1) at a test compound concentration of 1 mg/mL
# General HPLC Procedure • Agilent, Waters X-Select C18, 2.5 μm, 4.6×30 mm column, 4 min method, 5-95% • MeCN/water (0.1% formic acid). • Flow rate 2.5 ml/min. • Column Oven Temperature 40° C. • Detection 254 nm.
# Sample Preparation • A 1.0 mg sample of test compound was dissolved in 1 mL of DMSO/water (3:1) and the resulting mixture was stirred at rt overnight.
# Recording Stability • A 50 μL aliquot of the test solution was removed and analysed in duplicate by 5 μL HPLC injections. The peak area for the test compound (taken to be 100% product, 0% degradation) was recorded following manual integration of the corresponding UV trace. The area retention time was also recorded. • The test solution was heated to 60° C. internal temperature (65° C. block temperature), with stirring, and timing commenced once the target temperature had been reached. After 5 and 24 h, samples were removed and analysed by HPLC (5 μL injections). In all cases, 5 μL injections were used and the samples analysed in duplicate. • The peak areas for the test compounds were recorded at both subsequent timepoints and the % decomposition calculated from the % change in peak area over time.
# PBMCs [3] = test: IL-2 release in CD3/CD28 stimulated PBMC cells; format: cell-based; conditions: Homo sapiens, read-out: IC50 Values for Inhibition of Cytokine Release PBMCs IL-2
# Method: (§3) PBMCs from healthy subjects are separated from whole blood using a density gradient (Lymphoprep, Axis-Shield Healthcare). Cells are added to a 96 well plate pre-coated with a mixture of CD3/CD28 monoclonal antibodies (0.3 μg/mL eBioscience and 3 μg/mL BD Pharmingen respectively). Compound at the desired concentration is then added to the wells and the plate left for 3 days under normal tissue culture conditions. Supernatants are harvested and IL-2 and IFN gamma release determined by Sandwich ELISA (Duo-set, R&D System). The IC50 is determined from the dose response curve.
# PBMCs [4] = test: IFN gamma release in CD3/CD28 stimulated PBMC cells; format: cell-based; conditions: Homo sapiens, read-out: IC50 Values for Inhibition of Cytokine Release PBMCs IFNγ
# Method: as §3
# Jurkat cells = test: Cell cytotoxicity assay (Jurkat cell viability); format: cell-based, human; conditions: 24 hours
# Method: 1×10^5 Jurkat cells (immortalised human T lymphocytes) are added to the appropriate number of wells of a 96 well plate in 100 μL of media (RPMI supplemented with 10% foetal bovine serum). 1 μL of DMSO control (final concentration 1.0% v/v) or test compound (final concentration 20, 5 or 1 μg/mL) is added to the wells and incubated at 37° C., 5% CO2. After 24 hours, the plate is centrifuged at 1200 rpm for 3 minutes and the supernatant discarded. Cells are then resuspended in 150 μL (final concentration 7.5 μg/mL) of propidium iodide (PI) in PBS and incubated at 37° C., 5% CO2 for 15 minutes. After 15 minutes, cells are analysed by flow cytometry (BD accuri) using the FL3 window. The % viability is calculated as the % of cells that are PI negative in the test wells normalised to the DMSO control.
# p38 MAPKα = target: T2, p38 MAPKα (Homo sapiens, UniProt Q16539); test: p38 MAPKα enzyme inhibition (Method 2), FRET Z-LYTE; format: biochemical
# T2 construct: purchased Invitrogen
# Method: as §1
# The inhibitory activities of test compounds against the p38 MAPKα isoform (MAPK14: Invitrogen), are evaluated indirectly by determining the level of activation/phosphorylation of the down-stream molecule, MAPKAP-K2. The p38 MAPKα protein (80 ng/mL, 2.5 μL) is mixed with the test compound (2.5 μL of either 4 μg/mL, 0.4 μg/mL, 0.04 μg/mL or 0.004 μg/mL) for 2 hr at RT. […] The mixture is incubated for 1 hr at RT. Development reagent (protease, 5 μL) is added for 1 hr prior to detection in a fluorescence microplate reader (Varioskan® Flash, ThermoFisher Scientific).
# This method follows the same steps as Method 1 above, but utilises a higher concentration of the p38 MAPKα protein (2.5 μL of 200 ng/mL protein instead of 2.5 μL of 80 ng/mL protein) for mixing with the test compound.
# as §2
# c-Src = target: T3, c-Src (Homo sapiens, UniProt P12931); test: c-Src enzyme inhibition, FRET Z-LYTE; format: biochemical
# T3 construct: purchased Invitrogen
# Method: as §1
# (§4) The inhibitory activities of compounds of the invention against c-Src and Syk enzymes (Invitrogen), are evaluated in a similar fashion to that described hereinabove. The relevant enzyme (3000 ng/mL or 2000 ng/mL respectively, 2.5 μL) is incubated with the test compound (either 4 μg/mL, 0.4 μg/mL, 0.04 μg/mL, or 0.004 μg/mL, 2.5 μL each) for 2 hr at RT. The FRET peptides (8 μM, 2.5 μL), and appropriate ATP solutions (2.5 μL, 800 μM for c-Src, and 60 μM ATP for Syk) are then added to the enzymes/compound mixtures and incubated for 1 hr. Development reagent (protease, 5 μL) is added for 1 hr prior to detection in a fluorescence microplate reader (Varioskan® Flash, ThermoFisher Scientific).
# as §2
# Syk = target: T4, Syk (Homo sapiens, UniProt P43405); test: Syk enzyme inhibition, FRET Z-LYTE; format: biochemical
# T4 construct: purchased Invitrogen
# Method: as §1, §4, §2
# T3 sequence (P12931 whole entry): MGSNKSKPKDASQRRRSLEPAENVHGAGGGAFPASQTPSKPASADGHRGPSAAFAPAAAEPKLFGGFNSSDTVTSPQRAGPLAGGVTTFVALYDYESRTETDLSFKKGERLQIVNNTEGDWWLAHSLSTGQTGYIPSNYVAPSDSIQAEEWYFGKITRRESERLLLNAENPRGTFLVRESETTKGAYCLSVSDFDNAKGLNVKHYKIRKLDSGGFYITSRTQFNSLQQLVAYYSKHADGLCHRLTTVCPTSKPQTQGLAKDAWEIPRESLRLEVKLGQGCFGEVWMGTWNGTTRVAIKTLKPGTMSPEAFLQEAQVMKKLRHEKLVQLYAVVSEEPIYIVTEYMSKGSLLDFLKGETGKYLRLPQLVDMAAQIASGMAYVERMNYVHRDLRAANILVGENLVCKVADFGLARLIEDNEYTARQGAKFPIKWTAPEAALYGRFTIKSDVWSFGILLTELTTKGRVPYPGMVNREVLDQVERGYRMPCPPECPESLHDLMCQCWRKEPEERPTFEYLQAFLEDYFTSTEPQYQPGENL
# T1 sequence (P49840 whole entry): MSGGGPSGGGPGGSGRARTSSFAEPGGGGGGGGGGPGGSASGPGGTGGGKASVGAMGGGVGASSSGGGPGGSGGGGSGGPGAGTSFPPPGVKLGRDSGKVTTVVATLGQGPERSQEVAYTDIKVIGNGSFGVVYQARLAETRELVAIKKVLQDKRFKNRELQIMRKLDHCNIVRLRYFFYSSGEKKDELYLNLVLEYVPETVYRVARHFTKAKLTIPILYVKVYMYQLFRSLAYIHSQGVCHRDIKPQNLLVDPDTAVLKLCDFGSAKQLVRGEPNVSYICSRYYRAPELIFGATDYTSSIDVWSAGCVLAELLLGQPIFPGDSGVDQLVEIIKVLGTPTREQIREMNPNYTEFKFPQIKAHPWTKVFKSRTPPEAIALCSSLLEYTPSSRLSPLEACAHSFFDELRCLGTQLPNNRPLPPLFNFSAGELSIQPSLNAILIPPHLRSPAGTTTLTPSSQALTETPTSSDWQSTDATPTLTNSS
# T2 sequence (Q16539 whole entry): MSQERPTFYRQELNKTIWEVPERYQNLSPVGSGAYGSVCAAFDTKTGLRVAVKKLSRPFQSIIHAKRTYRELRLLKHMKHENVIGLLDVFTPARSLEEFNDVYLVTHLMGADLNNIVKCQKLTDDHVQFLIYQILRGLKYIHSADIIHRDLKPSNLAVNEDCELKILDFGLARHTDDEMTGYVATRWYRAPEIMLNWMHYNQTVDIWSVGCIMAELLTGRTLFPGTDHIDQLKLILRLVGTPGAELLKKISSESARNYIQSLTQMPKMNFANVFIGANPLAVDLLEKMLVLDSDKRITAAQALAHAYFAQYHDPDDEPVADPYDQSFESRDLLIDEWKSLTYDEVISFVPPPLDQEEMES
SMILES,IC50 (GSK3α),IC50 (PBMCs [1]),"% Parent Remaining, cumulative average from multiple experiments ([2]; 60° C., 300 min)","% Parent Remaining ([2]; 60° C., 300 min)","% Parent Remaining, cumulative average from multiple experiments ([2]; 60° C., 1440 min)","% Parent Remaining ([2]; 60° C., 1440 min)","% Parent Remaining, cumulative average from multiple experiments ([2]; time 0 min)",% Parent Remaining ([2]; time 0 min),"decomposition under the conditions of the hydrolytic stability experiment, in words ([2]; 60° C.)",IC50 (PBMCs [3]),IC50 (PBMCs [4]),% Viability at 1 μg/mL (Jurkat cells),% Viability at 5 μg/mL (Jurkat cells),% Viability at 20 μg/mL (Jurkat cells),IC50 (p38 MAPKα),IC50 (c-Src),IC50 (Syk)
"COc1cc(Nc2ncc3cc(-c4cc(C(=O)Nc5cc(C(C)(C)C)cc(P(C)(C)=O)c5OC)ccc4C)ccc3n2)cc(C(=O)NCCN2CCOCC2)c1 [Example 4, N-(5-(tert-Butyl)-3-(dimethylphosphoryl)-2-methoxyphenyl)-3-(2-((3-methoxy-5-((2-morpholinoethyl)carbamoyl)phenyl)amino)quinazolin-6-yl)-4-methylbenzamide]",> 12800 nM,14.8 nM,,,,,,,,,,,,,,,
"C#Cc1cc(Nc2nccc(Oc3ccc(NC(=O)Nc4cc(C(C)C)nn4-c4ccc(C)cc4)c4ccccc34)n2)cc(C(=O)NCCN2CCOCC2)c1 [Reference Compound B, 3-ethynyl-5-((4-((4-(3-(3-isopropyl-1-(p-tolyl)-1H-pyrazol-5-yl)ureido)naphthalen-1-yl)oxy)pyrimidin-2-yl)amino)-N-(2-morpholinoethyl)benzamide]",,,71.0%,93.3%,26.0%,52.3%,100^a (100^b) %,100^a (100^b) %,underwent substantial decomposition,,,,,,,,
"COc1cc(Nc2ncc3cc(-c4cc(C(=O)Nc5cc(C(C)(C)C)cc(NS(C)(=O)=O)c5OC)ccc4C)ccc3n2)cc(C(=O)NCCN2CCOCC2)c1 [Example 5, N-(5-(tert-butyl)-2-methoxy-3-(methylsulfonamido)phenyl)-3-(2-((3-methoxy-5-((2-morpholinoethyl)carbamoyl)phenyl)amino)quinazolin-6-yl)-4-methylbenzamide]",> 12600 nM,10.3 nM,,,,,,,,38.7 nM,30.4 nM,116.5%,48.8%,44.6%,,,
"COc1c(NC(=O)c2ccc(C)c(-c3ccc4nc(Nc5cc(OS(C)(=O)=O)cc(C(=O)NCCN6CCOCC6)c5)ncc4c3)c2)cc(C(C)(C)C)cc1NS(C)(=O)=O [Example 10, 3-((6-(5-((5-(tert-Butyl)-2-methoxy-3-(methylsulfonamido)phenyl)carbamoyl)-2-methylphenyl)-quinazolin-2-yl)amino)-5-((2-morpholinoethyl)carbamoyl)phenyl methanesulfonate]",,3.5 nM,,,,,,,,,13.1 nM,91.5%,82.5%,77.8%,24 nM,20 nM,> 1160 nM
"COCCOCCOCCOc1cc(Nc2ncc3cc(-c4cc(C(=O)Nc5cccc(C(F)(F)F)c5)ccc4C)ccc3n2)cc(OC)c1 [Example 1, 3-(2-((3-Methoxy-5-(2-(2-(2-methoxyethoxy)ethoxy)ethoxy)phenyl)amino)quinazolin-6-yl)-4-methyl-N-(3-(trifluoromethyl)phenyl)benzamide]",> 14500 nM,134 nM,,,,,,,,,,,,,776 nM,14 nM,> 1450 nM
"COc1cc(Nc2ncc3cc(-c4cc(C(=O)Nc5cc(C(C)(C)C)cc(NS(C)(=O)=O)c5OC)ccc4C)ccc3n2)ccc1C(=O)N1CCS(=O)(=O)CC1 [Example 12, N-(5-(tert-Butyl)-2-methoxy-3-(methylsulfonamido)phenyl)-3-(2-((4-(1,1-dioxidothiomorpholine-4-carbonyl)-3-methoxyphenyl)amino)quinazolin-6-yl)-4-methylbenzamide]",,2.3 nM,,,,,,,,,12.6 nM,86.4%,79.3%,81.0%,8 nM,4 nM,190 nM
